This note sets out measurements from US7989482B2, “Indoline anti-cancer agents” (Joyant Pharmaceuticals, Inc., priority 2008, dated 2011).

The IC50 is the concentration at which inhibition is half-maximal.

SMILES strings stand for the structures. Read-outs that look alike come from different tables or passages of the source. Bounds are passed on as bounds.

One data set has as its system DU145. Put plainly: Cell profiling, DU145 tumor cell line. It counts as cell-based. The conditions noted are these: Homo sapiens, DU-145; Tumor cell line DU145, origin Prostate. Here is the method:
(§1) Cell viability assays were run using standard protocols known to those of skill in art. Cells were plated in 96 well plates at the density of 3,000-10,000 cells per well. Twenty four hours later, cells were treated with increasing concentration of test compounds (1 nM to 1 μM). After another 48 hour, cell survival was measured using CELL-TITER-GLO® reagent (Promega) following the protocol provided by the manufacture. The IC50 value was determined as the concentration of test compound that kills 50% of the cell population.
(§2) The compound of Example 46 was profiled in tumor cell lines derived from a variety of origins.

Another data set has as its system LOVO. Put plainly: Cell profiling, LOVO tumor cell line. It counts as cell-based. The conditions noted are these: Homo sapiens, origin Colon. Here is the method: as §1, §2
For a further data set, the system named is HCT116. Put plainly: Cell profiling, HCT116 tumor cell line. The settings on record: Homo sapiens, HCT-116; Tumor cell line HCT116, origin Colon. The class given is cell-based. Here is the method: as §1, §2
Another data set deals with OVCAR 3. Put plainly: Cell profiling, OVCAR 3 tumor cell line. The class given is cell-based. The settings on record: Homo sapiens; Tumor cell line OVCAR 3, origin Ovarian. The protocol: as §1, §2
A further data set has as its system HT29. Kind of data set: Cell profiling, HT29 tumor cell line. The class given is cell-based. The conditions noted are these: Homo sapiens, HT-29; Tumor cell line HT29, origin Colon. The protocol:
as §1, §2

Another data set concerns NCI-H460. Put plainly: Cell profiling, NCI-H460 tumor cell line. The class given is cell-based. The settings on record: Homo sapiens; Tumor cell line NCI-H460, origin Lung. Here is the method: as §1, §2
The subject of the next data set is HCC1437. Kind of data set: Cell profiling, HCC1437 tumor cell line. The class given is cell-based. The conditions noted are these: Tumor cell line HCC1437, origin Lung. The protocol:
as §1, §2

For another data set, the system named is U937 cells. Put plainly: Cell viability assay (CELL-TITER-GLO) in U937 cells. The settings on record: Homo sapiens. The class given is cell-based. Here is the method: as §1
(§3) Cell viability data generated according to the protocol described in Example 97 was generated for representative compounds in A2058 and U937 cells.

A further data set has as its system BxPC3. Put plainly: Cell profiling, BxPC3 tumor cell line. The conditions noted are these: Homo sapiens, BXPC-3; Tumor cell line BxPC3, origin Pancreas. The class given is cell-based. The protocol: as §1, §2
For another data set, the system named is A2058 cells. Kind of data set: Cell viability assay (CELL-TITER-GLO) in A2058 cells. The settings on record: Homo sapiens. The class given is cell-based. The protocol: as §1, §3
The next data set concerns BT474. Kind of data set: Cell profiling, BT474 tumor cell line. The class given is cell-based. The conditions noted are these: Homo sapiens, BT-474; Tumor cell line BT474, origin Breast. The protocol:
as §1, §2

The subject of another data set is A375. Put plainly: Cell profiling, A375 tumor cell line. It counts as cell-based. The conditions noted are these: Homo sapiens, A-375; Tumor cell line A375, origin Skin. Here is the method:
as §1, §2

For a further data set, the system named is HCC461. Kind of data set: Cell profiling, HCC461 tumor cell line. It counts as cell-based. The conditions noted are these: Tumor cell line HCC461, origin Lung. Here is the method:
as §1, §2

The next data set relates to COLO205. Kind of data set: Cell profiling, COLO205 tumor cell line. The class given is cell-based. The settings on record: Homo sapiens, COLO 205; Tumor cell line COLO205, origin Colon. Here is the method: as §1, §2
Data set [1] has as its system HCT116 human colon carcinoma xenograft. Put plainly: HCT116 human colon carcinoma xenograft model in mice. It counts as in vivo. The conditions noted are these: 20 mg/kg per dose intravenously, days 9, 11, 14, 16, 18 and 21 post tumor cell injection. Here is the method:
Compound of Example 73 was administered at 20 mg/kg per dose. Injections were given at days 9, 11, 14, 16, 18 and 21 post tumor cell injection.
The compound of Example 73 was tested in HCT116 human colon carcinoma xenograft and Miapaca pancreatic cancer xenograft tumor models in 5- to 6-week-old Harlan Athymic Nude-Foxnlnu mice.
Preparation of Tumor Cells • 1. Tumor cells were cultured in complete RPMI medium and excluded any contamination • 2. When cells are 70-80% confluent, medium was removed and cells were washed with serum free media, trypsinized, harvested and washed with serum free media for three times by centrifuge. After final washing, cells were counted and mixed with matrigel at 1:1 ration in volume. Cells were suspended in a volume that 200 μl contains required number of cells per injection.
Preparation of the Injection • 1. Clean and sterilize the inoculation area of the mice with iodine solutions and ethanol. • 2. Take cells with 1-cc syringe. • 3. Inject tumor cells (1×10^7) subcutaneously (s.c.) into the lower flank of the mice. • 4. When tumors reached 200-300 mm^3 in size, mice were randomized into treatment groups of five mice per group. • 5. Mice were weighed and tumors measured using vernier calipers two times per week. Tumor volume in mm3 is calculated by the formula: Volume (mm^3)=(length×width^2)/2. […]
(In general: In xenograft studies the graft and the host belong to different species.)

[2] abbreviates: U-937, 48 h, U937 cells, 48 hour treatment, cell viability, read-out: IC50 (μM) U937.
Setting [3] is: A2058, 48 h, A2058 cells, 48 hour treatment, cell viability, read-out: IC50 (μM) A2058.
Setting [4] is: U-937, U937 cells, 48 hour treatment, cell viability, read-out: IC50 (μM) U937.
Setting [5] is: A2058 cells, 48 hour treatment, cell viability, read-out: IC50 (μM) A2058.

Consider `COC(=O)c1coc(-c2nc3oc2C24c5ccccc5N[C@H]2Oc2ccc(cc24)C[C@H](NC(=O)[C@@H](O)C(C)C)C(=O)N[C@H]3C(C)C)n1` (stereo partly drawn) [Example 46], for which the IC50 in the data set with DU145 was 67 nM; in the data set on LOVO it was 148 nM; in the data set on HCT116, 731 nM; in the data set with OVCAR 3, 32 nM; in the data set on HT29 it was 90 nM; in the data set on NCI-H460, 245 nM. The IC50 in the data set on HCC1437 came out at 63 nM; with U937 cells (setting [2]), 0.013 µM; in the data set on U937 cells (U-937, Tumor cell line U937, origin Blood, read-out: IC50) it was 0.013 µM; with BxPC3 it was 23 nM; with A2058 cells (setting [3]), 0.044 µM; in the data set on A2058 cells (A2058, Tumor cell line A2058, origin Skin, read-out: IC50) it was 0.044 µM. The IC50 in the data set with BT474 turned out to be 6 nM; with A375 it was 99 nM; with HCC461, 344 nM; with COLO205, 147 nM.
In data set [1], `CC(C)[C@H](O)C(=O)N[C@H]1Cc2ccc3c(c2)C2(C4=C(c5nc(CO)co5)N=C(O4)[C@H](C(C)C)NC1=O)c1ccccc1N[C@H]2O3` (stereo partly drawn) [Example 73] displayed a maximum weight loss of 7.9%. Further, the “tumor size for treated animals, % of control” value in data set [1] (day 25) is listed as 34.5 % of control. In addition, the concentration for half-maximal inhibition (IC50) was determined as 0.037 µM with U937 cells (setting [2]) and 0.093 µM in the data set with A2058 cells (setting [3]).
For the molecule `CC(C)OC(=O)c1coc(-c2nc3oc2C24c5ccccc5N[C@H]2Oc2ccc(cc24)C[C@H](NC(=O)[C@@H](O)C(C)C)C(=O)N[C@H]3C(C)C)n1` (stereo partly drawn) [Example 81], the figures for the IC50 in the data set on U937 cells (setting [2]) and with A2058 cells (setting [3]) were 0.0014 µM and 0.006 µM, respectively.
For `CC(C)[C@H](O)C(=O)N[C@H]1Cc2ccc3c(c2)C2(C4=C(c5nc(C(=O)OC(C)(C)C)co5)N=C(O4)[C@H](C(C)C)NC1=O)c1ccccc1N[C@H]2O3` (stereo partly drawn) [Example 82] the same measures were 0.066 µM and 0.126 µM.
The corresponding values for `CC(C)[C@H](O)C(=O)N[C@H]1Cc2ccc3c(c2)C2(C4=C(c5cnco5)N=C(O4)[C@H](C(C)C)NC1=O)c1ccccc1N[C@H]2O3` (stereo partly drawn) [Example 83] are 0.252 µM and 0.433 µM.
As for `CCC(O)(CC)C(=O)N[C@H]1Cc2ccc3c(c2)C2(C4=C(c5cnco5)N=C(O4)[C@H](C(C)C)NC1=O)c1ccccc1N[C@H]2O3` (stereo partly drawn) [Example 84], the IC50 in the data set with U937 cells (setting [2]) worked out at 0.315 µM; with A2058 cells (setting [3]) it was 0.487 µM.
For `CC(C)[C@H](O)C(=O)N[C@H]1Cc2ccc3c(c2)C2(C4=C(c5ncc[nH]5)N=C(O4)[C@H](C(C)C)NC1=O)c1ccccc1N[C@H]2O3` (stereo partly drawn) [Example 85] the same measures were 0.234 µM and 0.337 µM.
Consider `CC(C)[C@H](O)C(=O)N[C@H]1Cc2ccc3c(c2)C2(C4=C(c5nc(C#N)c(N)o5)N=C(O4)[C@H](C(C)C)NC1=O)c1ccccc1N[C@H]2O3` (stereo partly drawn) [Example 86], for which the values for the IC50 in the data set with U937 cells (setting [2]) and in the data set on A2058 cells (setting [3]) were 0.064 µM and 0.179 µM, respectively.
With `Cc1noc(-c2nc3oc2C24c5ccccc5N[C@H]2Oc2ccc(cc24)C[C@H](NC(=O)[C@@H](O)C(C)C)C(=O)N[C@H]3C(C)C)n1` (stereo partly drawn) [Example 87], the IC50 in the data set with U937 cells (setting [2]) turned out to be 0.164 µM; in the data set on A2058 cells (setting [3]) it was 0.479 µM.
Take `CCOC(=O)c1noc(-c2nc3oc2C24c5ccccc5N[C@H]2Oc2ccc(cc24)C[C@H](NC(=O)[C@@H](O)C(C)C)C(=O)N[C@H]3C(C)C)n1` (stereo partly drawn) [Example 88]: the IC50 in the data set with U937 cells (setting [2]) was 0.7 µM; in the data set on A2058 cells (setting [3]), above 1 µM.
For `COC(=O)c1nc([C@@H](NC(=O)[C@H](Cc2ccc(O)cc2)NC(=O)[C@@H](O)C(C)C)C(C)C)oc1-c1c[nH]c2ccccc12` [Example 89], the IC50 with U937 cells (setting [4]) and in the data set with A2058 cells (setting [5]) was above 1 µM throughout.
As to `CC(C)[C@H](O)C(=O)N[C@H]1Cc2ccc3c(c2)C2(C4=C(c5ncc(-c6c[nH]c7c(O)cccc67)o5)N=C(O4)[C@H](C(C)C)NC1=O)c1ccccc1N[C@H]2O3` (stereo partly drawn) [Example 90], the IC50 was above 1 µM with U937 cells (setting [2]) and 0.994 µM with A2058 cells (setting [3]).
The corresponding values for `CC(C)[C@H](O)C(=O)N[C@H]1Cc2ccc3c(c2)C2(C4=C(c5ncc(-c6c[nH]c7ccccc67)o5)N=C(O4)[C@H](C(C)C)NC1=O)c1ccccc1N[C@H]2O3` (stereo partly drawn) [Example 91] are 0.579 µM and 0.475 µM.
Consider `COC(=O)c1nc2oc1[C@@]13c4cc(Cl)ccc4NC1Oc1ccc(cc13)C[C@H](NC(=O)[C@@H](O)C(C)C)C(=O)N[C@H]2C(C)C` (stereo partly drawn) [Example 93], for which the IC50 with U937 cells (setting [2]) and in the data set on A2058 cells (setting [3]) was above 1 µM throughout.
In the case of `COC(=O)c1nc([C@@H](NC(=O)[C@H](Cc2ccccc2)NC(=O)[C@@H](O)C(C)C)C(C)C)oc1-c1c[nH]c2ccccc12` [Example 94], the IC50 in the data set with U937 cells (setting [4]) and in the data set on A2058 cells (setting [5]) was above 1 µM in each case.
On to `COc1ccc(-c2cnc(-c3nc4oc3[C@@]35c6ccccc6NC3Oc3ccc(cc35)C[C@H](NC(=O)[C@@H](O)C(C)C)C(=O)NC4C(C)C)o2)cc1` (stereo partly drawn) [Example 95], for which the IC50 with U937 cells (setting [2]) and with A2058 cells (setting [3]) was above 1 µM each time.
